# According to patent US6593342B1, “Pharmaceutical compositions comprising 2-quinolones” (Laboratoire L. Lafon, priority 1998, dated 2003):
# Columns and labels:
# A-427 = assay: MTT test, A-427; format: cell-based; conditions: Homo sapiens, 10^−5 M, 72 hours, control = 100%, mean ± SEM, read-out: average optical density (MTT), percentage relative to control
# Method: (§1) The influence of the compounds of formulae (I) and (Ia) on non-clonogenic cells was evaluated with the aid of the MTT calorimetric test.
# (§2) The principle of the MTT test is based on the mitochondrial reduction, by the metabolically active live cells, of the yellow-colored product MTT (3-(4,5-dimethylthiazol-2-yl)-2,5-diphenyltetrazolium bromide) to a blue-colored product, formazan. The amount of formazan thus obtained is directly proportional to the amount of live cells present in the culture well(s). This amount of formazan is measured by spectrophotometry.
# (§3) The cell lines are maintained as a monolayer culture at 37° C. in stoppered culture dishes containing MEM 25 MM HEPES (Minimum Essential Medium) base medium. This medium is suited to the growth of a range of various mammalian diploid or primary cells. This medium is then supplemented with:
# (§4) an amount of 5% of FCS (Foetal Calf Serum) decomplemented at 56° C. for 1 hour,
# (§5) 0.6 mg/ml of L-glutamine,
# (§6) 200 μg/ml of streptomycin,
# (§7) The 12 human cancer cell lines which were used were obtained from the American Type Culture Collection (ATCC, Rockville, Md., USA). These 12 cell lines are:
# A549 (code ATCC: CCL-185) and A-427 (code ATCC: HTB-53) which are two non-small-cell lung cancers,
# (§8) Experimentally: 100 μl of a cell suspension containing 20 000 to 50 000 (depending on the cell type used) cells/ml of culture medium are inoculated in 96-well flat-bottomed multi-well plates and are incubated at 37° C., under an atmosphere comprising 5% CO2 and 70% humidity. After incubation for 24 hours, the culture medium is replaced with 100 μl of fresh medium containing either the various test compounds at concentrations ranging from 10^−5 to 10^−10 M or the solvent used to dissolve the test products (control condition). After incubation for 72 hours under the above conditions, the culture medium is replaced with 100 μl of a yellowish solution of MTT dissolved at a rate of 1 mg/ml in RPMI 1640. The microplates are reincubated for 3 hours at 37° C. and are then centrifuged for 10 minutes at 400×g. The yellowish solution of MTT is removed and the blue formazan crystals formed in the cell are dissolved in 100 μl of DMSO. The microplates are then shaken for 5 minutes. The intensity of the resulting blue coloration, and thus of the conversion of the yellow product MTT into blue formazan by the cells that are still alive at the end of the experiment, is quantified by spectrophotometry using a Dynatech Immunoassay System machine at wavelengths of 570 nm and 630 nm corresponding, respectively, to the maximum absorption wavelengths of formazan and to the background noise. Software incorporated in the spectrophotometer calculates the average optical density values and the standard deviation (SD) and standard error of mean (SEM) values.
# (§9) By way of example, the results of the average optical density, expressed as a percentage relative to the average optical density measured under the control condition (set equal to 100%), obtained at a concentration of 10^−5 M on the 12 abovementioned tumor cell lines are given in Table II.
# T-47D = assay: MTT test, T-47D; format: cell-based; conditions: Homo sapiens, T47D, 10^−5 M, 72 hours, control = 100%, mean ± SEM, read-out: average optical density (MTT), percentage relative to control
# Method: as §1, §2, §3, §4, §5, §6, §7
# T-47D (code ATCC: HTB-133) and MCF7 (code ATCC: HTB-22) which are two breast cancers,
# as §8, §9
# LoVo = assay: MTT test, LoVo; format: cell-based; conditions: Homo sapiens, 10^−5 M, 72 hours, control = 100%, mean ± SEM, read-out: average optical density (MTT), percentage relative to control
# Method: as §1, §2, §3, §4, §5, §6, §7
# HTC-15 (code ATCC: CCL-225) and LoVo (code ATCC: CCL-229) which are two colorectal cancers,
# as §8, §9
# SW1088 = assay: MTT test, SW1088; format: cell-based; conditions: Homo sapiens, 10^−5 M, 72 hours, control = 100%, mean ± SEM, read-out: average optical density (MTT), percentage relative to control
# Method: as §1, §2, §3, §4, §5, §6, §7
# SW1088 (code ATCC: HTB-12) which is an astrocytoma,
# as §8, §9
# U-87MG = assay: MTT test, U-87MG; format: cell-based; conditions: Homo sapiens, 10^−5 M, 72 hours, control = 100%, mean ± SEM, read-out: average optical density (MTT), percentage relative to control
# Method: as §1, §2, §3, §4, §5, §6, §7
# U-373MG (code ATCC: HTB-17) and U-87MG (code ATCC: HTB-14) which are two glioblastomas,
# as §8, §9
# [1] = Determination of the maximum tolerated dose (MTD); conditions: mouse, in vivo, ip; B6D2F1/Jico mice; single intraperitoneal administration, 2.5 to 160 mg/kg; survival over 14 days
# Method: 3.—Determination of the Maximum Tolerated Dose (MTD):
# The evaluation of the maximum tolerated dose was carried out on 4- to 6-week-old B6D2F1/Jico mice. The compounds were administered intraperitoneally at increasing doses graduating from 2.5 to 160 mg/kg. The value of the MTD (expressed in mg/kg) is determined from the observation of the survival rate of the animals over a 14-day period after a single administration of the product under consideration. The weight change of the animals is also monitored during this period. When the value of the MTD is greater than 160 mg/kg, the MTD value is likened to 160 mg/kg by default.
# The results of the estimation of the maximum tolerated dose (MTD) are collated in the following table: […]
# J82 = assay: MTT test, J82; format: cell-based; conditions: Homo sapiens, 10^−5 M, 72 hours, control = 100%, mean ± SEM, read-out: average optical density (MTT), percentage relative to control
# Method: as §1, §2, §3, §4, §5, §6, §7
# J82 (code ATCC: HTB-1) and T24 (code ATCC: HTB-4) which are two bladder cancers,
# as §8, §9
# PC-3 = assay: MTT test, PC-3; format: cell-based; conditions: Homo sapiens, 10^−5 M, 72 hours, control = 100%, mean ± SEM, read-out: average optical density (MTT), percentage relative to control
# Method: as §1, §2, §3, §4, §5, §6, §7
# PC-3 (code ATCC: CRL-1435) which is a prostate cancer.
# as §8, §9
Structure (SMILES),viability at 10 µM (A-427) [%],viability at 10 µM (T-47D) [%],viability at 10 µM (LoVo) [%],viability at 10 µM (SW1088) [%],viability at 10 µM (U-87MG) [%],MTD at 14 day [1] [mg/kg],viability at 10 µM (J82) [%],viability at 10 µM (PC-3) [%]
"CCN(CC)C(=O)Cn1c(=O)c(-c2ccc(OC)cc2)cc2c(OC)cc(OC)cc21 [CRL8315, N,N-Diethyl-2-[5,7-dimethoxy-3-(4-methoxy-phenyl)-2-oxo-1,2-dihydro-1-quinolinyl]acetamide]",92.6 ± 2.1,101 ± 2.5,78.9 ± 2.1,89.1 ± 0.6,87.6 ± 4.5,> 160,65.9 ± 1.3,93.6 ± 3
"COc1ccc(-c2cc3c(OC)cc(OC)cc3n(CCN(C)C)c2=O)cc1 [CRL8316, 1-[2-(Dimethylamino)ethyl]-5,7-dimethoxy-3-(4-methoxyphenyl)-1,2-dihydro-2-quinolinone]",79.1 ± 4.8,68.8 ± 2.4,73.9 ± 2.1,107 ± 2,74.3 ± 1.4,> 160,26.9 ± 0.9,84.8 ± 2.3
"COc1ccc(-c2cc3c(OC)cc(OC)cc3n(CCC#N)c2=O)cc1 [CRL8247, 3-[5,7-Dimethoxy-3-(4-methoxyphenyl)-2-oxo-1,2-dihydro-1-quinolinyl]propanenitrile]",57 ± 1.5,58.3 ± 1.4,66.4 ± 2.5,85.8 ± 3.6,59 ± 2.3,> 160,55 ± 2.3,70.5 ± 4.6
"CCN(CC)C(=O)CCn1c(=O)c(-c2ccc(OC)cc2)cc2c(OC)cc(OC)cc21 [CRL8283, N,N-Diethyl-3-[5,7-dimethoxy-3-(4-methoxy-phenyl)-2-oxo-1,2-dihydro-1-quinolinyl]propanamide]",73.1 ± 1.7,81 ± 3.1,97.3 ± 3.6,84.7 ± 3.1,69.9 ± 3.4,> 160,71.6 ± 2.2,92.4 ± 1.7
"COc1ccc(-c2cc3c(OC)cc(OC)cc3n(CCc3nnn[nH]3)c2=O)cc1 [CRL8256, 1-[2-(1H-1,2,3,4-Tetrazol-5-yl)ethyl]-5,7-dimethoxy-3-(4-methoxyphenyl)-1,2-dihydro-2-quinolinone]",81.1 ± 2.9,77.5 ± 3.6,93 ± 2.3,72.1 ± 3.3,84.7 ± 1.7,> 160,77.8 ± 0.8,86 ± 2.3
"COc1ccc(-c2cc3c(OC)cc(OC)cc3[nH]c2=O)cc1 [CRL8246, 5,7-Dimethoxy-3-(4-methoxyphenyl)-1,2-dihydro-2-quinolinone]",101 ± 0.9,96 ± 2.6,109 ± 7,108 ± 1.1,92.1 ± 1.5,> 160,87.6 ± 2.2,122 ± 1.7
